Data from patent US5424292A (Depha Team s.r.l., priority 1990, dated 1995).

Assays:
[1] = male Fischer rats, doses equivalent to 60 mg/kg of 5-ASA via metal probe into stomach; for Recovery percentages of 5-ASA + N-acetyl-5-ASA in feces by HPLC: feces withdrawn at 2 hour intervals for 48 hours; for Recovery percentages of 5-ASA + N-acetyl-5-ASA in urine by HPLC: urine withdrawn at 2 hour intervals for 48 hours
Method: Particularly, male Fischer rats weighing about 200-250 g were used.
The rats were then placed in metabolic cages, from which feces and urine were withdrawn at 2 hour intervals for 48 hours.

[2] = cited from earlier work

SMILES	Recovery percentages of 5-ASA + N-acetyl-5-ASA in feces by HPLC [1] [%]	Recovery percentages of 5-ASA + N-acetyl-5-ASA in urine by HPLC [1] [%]	Stability at the gastric pH [2]
N[C@@H](CCC(=O)O)C(=O)Nc1ccc(O)c(C(=O)O)c1 [Compound 2, (N-L-glutamyl)-amino-2-salicylic acid]	45 ± 4	34 ± 4	
Nc1ccc(O)c(C(=O)O)c1 [Compound 5-ASA, 5-aminosalicylic acid]	05 ± 3	79 ± 3	not stable at the gastric pH
